Measurements taken from patent US10201532B2, “Compounds and their use” (ALLECRA THERAPEUTICS GMBH, priority 2010, dated 2019).

What was measured:
[1] = system: KPC-2 producing K. pneumoniae (ATCC BAA-1705); assay: Synergistic broth micro-dilution MIC (checkerboard); format: cell-based, Klebsiella pneumoniae; conditions: for MIC of Cefepime in combination with BLI / MIC of Cefotaxime in combination with BLI / MIC of Ceftazidime in combination with BLI / MIC of Ceftobiprole in combination with BLI / MIC of Ertapenem in combination with BLI / MIC of Faropenem in combination with BLI / MIC of Imipenem in combination with BLI / MIC of Meropenem in combination with BLI / MIC of Aztreonam in combination with BLI: ATCC BAA-1705
[2] = target: crude KPC-3 enzyme extract (UniProt Q9F663, H272Y, species not given); assay: β-Lactamase inhibitory assay with CENTA substrate; format: biochemical; conditions: also headed KPC2
From the text: (§1) The Compound-1 was subjected to β-lactamase inhibitory assay to determine IC50 and to compare that with the comparator BLI agents as described elsewhere (Bebrone et. al., Antimicrob. Agents. Chemother, 2001, 45(6): 1868-1871; Jamieson et. al, Antimicrob. Agents. Chemother, 2003, 47(5): 1652-1657). Briefly, enzyme extracts from KPC-2 producing and KPC-3 expressing bacterial gram negative strains were used to study the β-lactamase inhibitory activity and determination of IC50 using CENTA as the substrate for β-lactamase.

[3] = target: T1, crude KPC-2 enzyme extract (Klebsiella pneumoniae, UniProt Q9F663); assay: β-Lactamase inhibitory assay with CENTA substrate; format: biochemical
T1 construct: enzyme extracts from KPC-2 producing and KPC-3 expressing bacterial gram negative strains were used; endogenous in cells; host or cells: KPC-2 producing gram-negative strain
From the text: as §1

[4] = system: KPC-3 expressing E. coli (J53 R6206); assay: Synergistic broth micro-dilution MIC (checkerboard); format: cell-based, Escherichia coli

T1 sequence (Q9F663 25-293 limits assumed): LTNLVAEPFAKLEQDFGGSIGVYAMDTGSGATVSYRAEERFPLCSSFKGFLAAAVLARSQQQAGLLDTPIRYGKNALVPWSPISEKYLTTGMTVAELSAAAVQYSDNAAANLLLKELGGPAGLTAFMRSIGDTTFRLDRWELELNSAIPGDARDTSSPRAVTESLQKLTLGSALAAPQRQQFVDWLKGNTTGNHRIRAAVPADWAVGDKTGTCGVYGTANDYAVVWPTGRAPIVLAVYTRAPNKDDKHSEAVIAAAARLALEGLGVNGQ

O=C(O)[C@H]1/C(=C/CO)O[C@@H]2CC(=O)N21 [Clavulanic acid]
1 µg/mL: MIC of Imipenem in combination with BLI ([4]; BLI at 2 μg/mL) | MIC of Meropenem in combination with BLI ([4]; BLI at 2 μg/mL) | MIC of Cefotaxime in combination with BLI ([4]; BLI at 4 μg/mL) | MIC of Imipenem in combination with BLI ([4]; BLI at 4 μg/mL) | MIC of Meropenem in combination with BLI ([4]; BLI at 4 μg/mL) | MIC of Cefepime in combination with BLI ([4]; BLI at 8 μg/mL)
8 µg/mL: MIC of Cefepime in combination with BLI ([1]; BLI at 64 μg/mL) | MIC of Cefotaxime in combination with BLI ([1]; BLI at 64 μg/mL) | MIC of Ertapenem in combination with BLI ([1]; BLI at 64 μg/mL) | MIC of Cefepime in combination with BLI ([4]; BLI at 2 μg/mL) | MIC of Ceftobiprole in combination with BLI ([4]; BLI at 2 μg/mL) | MIC of Cefepime in combination with BLI ([4]; BLI at 4 μg/mL) | MIC of Ceftobiprole in combination with BLI ([4]; BLI at 4 μg/mL) | MIC of Ceftazidime in combination with BLI ([4]; BLI at 8 μg/mL)
330 µM: IC50 [3]
64 µg/mL: MIC of Cefepime in combination with BLI ([1]; BLI at 2 μg/mL) | MIC of Cefepime in combination with BLI ([1]; BLI at 4 μg/mL) | MIC of Ertapenem in combination with BLI ([1]; BLI at 4 μg/mL) | MIC of Ceftazidime in combination with BLI ([1]; BLI at 16 μg/mL) | MIC of Aztreonam in combination with BLI ([1]; BLI at 64 μg/mL) | MIC of Ceftobiprole in combination with BLI ([1]; BLI at 64 μg/mL)
16 µg/mL: MIC of Meropenem in combination with BLI ([1]; BLI at 2 μg/mL) | MIC of Cefotaxime in combination with BLI ([1]; BLI at 16 μg/mL) | MIC of Ceftazidime in combination with BLI ([1]; BLI at 64 μg/mL)
> 8 µg/mL: MIC ([4]; Escherichia coli, read-out: MIC of BLI alone, BLI alone)
32 to 64 µg/mL: MIC of Cefotaxime in combination with BLI ([1]; BLI at 2 μg/mL) | MIC of Cefotaxime in combination with BLI ([1]; BLI at 4 μg/mL)
32 µg/mL: MIC of Ertapenem in combination with BLI ([1]; BLI at 2 μg/mL) | MIC of Cefepime in combination with BLI ([1]; BLI at 8 μg/mL) | MIC of Cefepime in combination with BLI ([1]; BLI at 16 μg/mL) | MIC of Ertapenem in combination with BLI ([1]; BLI at 16 μg/mL) | MIC of Ceftazidime in combination with BLI ([4]; BLI at 2 μg/mL) | MIC of Ceftazidime in combination with BLI ([4]; BLI at 4 μg/mL)
4 µg/mL: MIC of Meropenem in combination with BLI ([1]; BLI at 8 μg/mL) | MIC of Meropenem in combination with BLI ([1]; BLI at 16 μg/mL) | MIC of Cefotaxime in combination with BLI ([4]; BLI at 2 μg/mL)
4 to 8 µg/mL: MIC of Meropenem in combination with BLI ([1]; BLI at 4 μg/mL) | MIC of Imipenem in combination with BLI ([1]; BLI at 8 μg/mL)
<0.25 µg/mL: MIC of Cefotaxime in combination with BLI ([4]; BLI at 8 μg/mL)
0.5 µg/mL: MIC of Imipenem in combination with BLI ([4]; BLI at 8 μg/mL) | MIC of Meropenem in combination with BLI ([4]; BLI at 8 μg/mL)
2 µg/mL: MIC of Imipenem in combination with BLI ([1]; BLI at 16 μg/mL) | MIC of Meropenem in combination with BLI ([1]; BLI at 64 μg/mL) | MIC of Ceftobiprole in combination with BLI ([4]; BLI at 8 μg/mL)
92 µM: IC50 [2]
<0.5 µg/mL: MIC of Imipenem in combination with BLI ([1]; BLI at 64 μg/mL)
> 64 µg/mL: MIC ([1]; Klebsiella pneumoniae, ATCCBAA1705, read-out: MIC of BLI alone)
16 to 32 µg/mL: MIC of Cefotaxime in combination with BLI ([1]; BLI at 8 μg/mL)
8 to 16 µg/mL: MIC of Imipenem in combination with BLI ([1]; BLI at 2 μg/mL) | MIC of Imipenem in combination with BLI ([1]; BLI at 4 μg/mL)
>64 µg/mL: MIC of Ceftazidime in combination with BLI ([1]; BLI at 2 μg/mL) | MIC of Ceftobiprole in combination with BLI ([1]; BLI at 2 μg/mL) | MIC of Faropenem in combination with BLI ([1]; BLI at 2 μg/mL) | MIC of Aztreonam in combination with BLI ([1]; BLI at 4 μg/mL) | MIC of Ceftazidime in combination with BLI ([1]; BLI at 4 μg/mL) | MIC of Ceftobiprole in combination with BLI ([1]; BLI at 4 μg/mL) | MIC of Faropenem in combination with BLI ([1]; BLI at 4 μg/mL) | MIC of Ceftazidime in combination with BLI ([1]; BLI at 8 μg/mL) | MIC of Ceftobiprole in combination with BLI ([1]; BLI at 8 μg/mL) | MIC of Aztreonam in combination with BLI ([1]; BLI at 16 μg/mL) | MIC of Ceftobiprole in combination with BLI ([1]; BLI at 16 μg/mL) | MIC of Faropenem in combination with BLI ([1]; BLI at 16 μg/mL) | MIC of Faropenem in combination with BLI ([1]; BLI at 64 μg/mL)
